Reference: ChEMBL document CHEMBL4513144, “CO-ADD screening of University of Central Lancashire (UK) compounds”
Converted amounts (≈) assume the structure as drawn.

Tests used:
HEK293 = experiment: cells; assay type: functional; settings: Homo sapiens, ATCC CRL1573, HEK293; ASSAY_TEST Inhibition of Cell Viability; detection method Resazurin; Fluorescence (ex560/em590); MEDIA DMEM with 10% FBS; plate type 384well; TC; CORNING #3712; time 18 hr
Staphylococcus aureus = experiment: microbe, parasite or virus in culture; settings: ATCC 43300, 18 h, ASSAY_TEST Inhibition of Bacterial Growth, detection method Absorption (OD600), MEDIA CAMHB, plate type 384well, NBS, CORNING #3640
Description: Antibacterial activity against Staphylococcus aureus MRSA ATCC 43300 (CO-ADD:GP_020); MIC in CAMBH media, using NBS plates, by OD(600)

Escherichia coli = experiment: microbe, parasite or virus in culture; settings: ATCC 25922, 18 h, ASSAY_TEST Inhibition of Bacterial Growth, detection method Absorption (OD600), MEDIA CAMHB, plate type 384well, NBS, CORNING #3640
Description: Antibacterial activity against Escherichia coli ATCC 25922 (CO-ADD:GN_001); MIC in CAMBH media using NBS plates, by OD(600)

Klebsiella pneumoniae = experiment: microbe, parasite or virus in culture; settings: ATCC 700603, 18 h, ASSAY_TEST Inhibition of Bacterial Growth, detection method Absorption (OD600), MEDIA CAMHB, plate type 384well, NBS, CORNING #3640
Description: Antibacterial activity against Klebsiella pneumoniae MDR ATCC 70063 (CO-ADD:GN_003); MIC in CAMBH media using NBS plates, by OD(600)

Pseudomonas aeruginosa = experiment: microbe, parasite or virus in culture; settings: ATCC 27853, 18 h, ASSAY_TEST Inhibition of Bacterial Growth, detection method Absorption (OD600), MEDIA CAMHB, plate type 384well, NBS, CORNING #3640
Description: Antibacterial activity against Pseudomonas aeruginosa ATCC 27853 (CO-ADD:GN_042); MIC in CAMBH media using NBS plates, by OD(600)

Acinetobacter baumannii = experiment: microbe, parasite or virus in culture; settings: ATCC 19606, 18 h, ASSAY_TEST Inhibition of Bacterial Growth, detection method Absorption (OD600), MEDIA CAMHB, plate type 384well, NBS, CORNING #3640
Description: Antibacterial activity against Acinetobacter baumannii ATCC 19606 (CO-ADD:GN_034); MIC in CAMBH media using NBS plates, by OD600

Candida albicans = experiment: microbe, parasite or virus in culture; settings: ATCC 90028, ASSAY_TEST Inhibition of Fungal Growth, detection method Absorption (OD530), plate type 384well, NBS, CORNING #3640
Description: Antifungal activity against Candida albicans ATCC 90028 (CO-ADD:FG_001); MIC in YNB media using NBS plates, by OD630

Description for Cryptococcus neoformans: Antifungal activity against Cryptococcus neoformans H99 ATCC 208821 (CO-ADD:FG_002); MIC in YNB media using NBS plates, by Resazurin OD(600-570)

MIC (Cryptococcus neoformans): > 32 µg/mL | MIC (Staphylococcus aureus): > 32 µg/mL | MIC (Escherichia coli): > 32 µg/mL | MIC (Klebsiella pneumoniae): > 32 µg/mL | MIC (Pseudomonas aeruginosa): > 32 µg/mL | MIC (Acinetobacter baumannii): > 32 µg/mL | MIC (Candida albicans): > 32 µg/mL
Compound: Oc1ccccc1-c1cc2ccccc2[nH]1 [2-(2'-HYDROXYPHENYL)-1H-INDOLE]
CC50 (HEK293): 0.256 µg/mL (≈ 1.22 µM)
